Source: patent publication US4696930A, “N-(heteroarylalkyl)acylanilide derivatives as antiarrhythmic agents” (Hoffmann-La Roche Inc., priority 1985, dated 1987)
Read-outs that look alike come from different tables or passages of the source.

Assays:
[1] = test system: Arachidonic Acid (AA) induced aggregation of human platelet rich plasma; experiment: Inhibition of arachidonic acid (AA) induced platelet aggregation; format: cell-based; details: 2 min, human PRP, AA 0.3 to 1 mM
Protocol: (§1) Human platelet rich plasma (PRP) and platelet poor plasma (PPP) are prepared from 0.38% sodium citrate treated blood. PRP is obtained by centrifugation at 180×g for 10 minutes and PPP by centrifuging the remaining red cell layer 1000×g for 10 minutes. Aggregation is determined by the turbidometric method of Born G.V.R., Nature, 194, 927, (1962), and monitored at 37° C. with a Payton dual channel module with stirring speed set at 900 rpm. PRP (0.45 ml) is added to a siliconized cuvette and prewarmed to 37° C. Zero and 100% light transmission are set with PRP and PPP, respectively. AA (50 μl) is added to the stirring PRP one minute after the addition of 5 μl of the compound to be tested. A threshold dose (0.3 to 1 mM) of AA is chosen which causes maximum aggregation at about 2 minutes. […] Activities of compounds of the invention in this test can be found in Table III below.

[2] = test system: Ouabain-induced ventricular arrhythmia; experiment: Effectiveness against ouabain-induced ventricular arrhythmia in anesthetized dogs; format: in vivo, dog; details: for minimal effective dose: Canis lupus familiaris, iv; for minimal effective dose / No. of effective cases/No. of experiments: dog
Protocol: Ventricular arrhythmia in an anesthetized dog was induced by an intravenous administration of ouabain. An initial i.v. dose of 40 μg/kg was administered, then 20 μg/kg i.v. 30 minutes later and then additional 10 μg/kg i.v. every 15 minutes until ventricular arrhythmia developed. […] The test compound, which was rac.-2-amino-N-(2,6-dimethylphenyl)-N-[3-(3-pyridinyl)propyl]propanamide dihydrochloride, dissolved in saline solution, was injected into the femoral vein 10 min. after the development of the arrhythmia. The dose schedule for the test compound was 1, 3 and 10 mg/kg i.v. in this order at 15 minute intervals until the arrhythmia was reversed to sinus rhythm.
Effectiveness against Ouabain-induced
Ventricular Arrhythmia in Dogs
MED: Minimum effective dose was measured by successive injections of 1, 3
and 10 mg/kg into the femoral vein at 15 minuteintervals until
ouabaininduced arrhythmia was reversed to the sinus rhythm.

[3] = test system: Platelet Activating Factor (PAF) induced aggregation of human platelet rich plasma; experiment: Inhibition of platelet activating factor (PAF) induced platelet aggregation; format: cell-based; details: human PRP, PAF 1 μM, first phase response
Protocol: as §1, with “which was cited above,” for “G.V.R., Nature, 194, 927, (1962),”, “PAF” for “AA”, “PRP prepared from citrated human blood will aggregate when stirred in the presence of PAF giving a two phase response. The first phase is caused by PAF and the second phase is caused by the release of arachidonic acid. PAF is used at 1 μM and only the first phase response, about 30% aggregation, is evaluated. The first phase is resistant to indomethacin. 50% inhibition of the 1st phase PAF response is calculated from” for “A threshold”, “curves and represented as IC50 values.” for “(0.3 to 1 mM) of AA is chosen which causes maximum aggregation at about 2 minutes.”

Thromboxane Synthase = experiment: Thromboxane synthase inhibition (Table III, enzyme source not stated); format: biochemical; details: platelet species not stated, read-out: Thromboxane Synthase Inh. IC50
Protocol: (§2) Rac.-2-amino-N-(2,6-dimethylphenyl)-N-[3-(3-pyridinyl)propyl]propanamide dihydrochloride was tested for its inhibitory effects on thromboxane A2 synthetase (washed rabbit platelet) activity in vitro.
(§3) Therefore, rac.-2-amino-N-(2,6-dimethylphenyl)-N-[3-(3-pyridinyl)propyl]propanamide dihydrochloride is useful in the treatment of ischemic heart disease.

[4] = molecular target: T1, thromboxane A2 synthetase (Oryctolagus cuniculus, UniProt G1TAZ9); experiment: Thromboxane A2 synthetase inhibition, washed rabbit platelets, C^14-arachidonic acid substrate; format: biochemical; details: in vitro
T1 construct: Using washed rabbit platelets as the enzyme sources; from tissue; host or cells: washed rabbit platelets
T1 sequence (G1TAZ9 1-530): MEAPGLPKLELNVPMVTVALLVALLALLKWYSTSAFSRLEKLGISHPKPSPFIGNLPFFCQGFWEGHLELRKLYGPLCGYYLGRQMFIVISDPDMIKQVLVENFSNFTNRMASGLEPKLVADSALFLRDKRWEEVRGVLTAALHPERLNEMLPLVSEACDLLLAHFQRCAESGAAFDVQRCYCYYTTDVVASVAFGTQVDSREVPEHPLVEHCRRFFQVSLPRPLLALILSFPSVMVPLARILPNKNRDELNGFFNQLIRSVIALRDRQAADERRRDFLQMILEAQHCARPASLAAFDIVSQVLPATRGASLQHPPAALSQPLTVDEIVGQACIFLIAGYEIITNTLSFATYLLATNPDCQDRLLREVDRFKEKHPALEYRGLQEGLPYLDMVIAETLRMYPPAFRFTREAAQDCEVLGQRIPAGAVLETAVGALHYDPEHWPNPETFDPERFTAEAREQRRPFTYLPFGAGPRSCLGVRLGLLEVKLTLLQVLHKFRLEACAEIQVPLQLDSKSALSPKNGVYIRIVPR
Protocol: as §2, §3

[5] = molecular target: T2, thromboxane A2 synthetase (Homo sapiens, UniProt P24557); experiment: Thromboxane A2 synthetase inhibition, human platelets, PG H2 substrate; format: biochemical; details: PG H2 as the substrate, read-out: thromboxane A2 synthetase inhibition IC50 range
T2 construct: thromboxane A2 synthetase activity of human platelets; from tissue; host or cells: human platelets
T2 sequence (P24557 1-533): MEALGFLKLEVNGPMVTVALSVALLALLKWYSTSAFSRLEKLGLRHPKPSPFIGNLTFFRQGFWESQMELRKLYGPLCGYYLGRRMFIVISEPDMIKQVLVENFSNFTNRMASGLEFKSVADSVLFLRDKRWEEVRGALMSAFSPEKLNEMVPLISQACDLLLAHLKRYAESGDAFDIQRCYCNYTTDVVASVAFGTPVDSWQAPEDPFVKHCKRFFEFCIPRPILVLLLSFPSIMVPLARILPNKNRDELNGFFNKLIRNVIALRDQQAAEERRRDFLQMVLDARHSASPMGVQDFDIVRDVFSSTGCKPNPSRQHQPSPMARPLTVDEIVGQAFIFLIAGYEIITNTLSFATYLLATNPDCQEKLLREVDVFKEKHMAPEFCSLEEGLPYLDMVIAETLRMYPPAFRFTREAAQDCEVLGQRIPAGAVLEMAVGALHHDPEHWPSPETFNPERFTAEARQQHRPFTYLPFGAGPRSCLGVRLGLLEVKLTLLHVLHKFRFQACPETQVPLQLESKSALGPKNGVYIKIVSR
Excerpt: as §3

[6] = test system: ventricular arrhythmias induced by 2-stage ligation of the coronary artery; experiment: Ventricular arrhythmias induced by 2-stage ligation of the coronary artery (Harris dogs); format: in vivo, dog (mongrel); details: for incidence of ventricular premature contractions and conversion to sinus rhythm: n=5
Protocol: (2) Test for effectiveness against ventricular arrhythmias induced by 2-stage ligation of the coronary artery in dogs (Harris dogs)
Mongrel dogs weighing between 8-14 kg were anesthetized using 30 mg/kg i.v. of sodium pentobarbital. They were artificially ventilated with room air. After thoracotomy via the fourth left intercostal space, the pericardium was opened. The left anterior descending artery was dissected free for a few millimeters near the distal edge of the […] and ligated there in two stages being separated by an interval of 30 minutes. […] Electrograms were monitored continuously throughout the experiment and the number of ventricular and sinus beats (expressed per minute) was counted for 5 minutes every 15 or 30 minutes after p.o. administration of compound and the percentage of ventricular premature beats were calculated.

[7] = test system: collagen-induced rabbit platelet aggregation; experiment: Ex vivo inhibition of collagen-induced rabbit platelet aggregation by plasma of orally treated rats; format: in vivo, rabbit platelets; plasma of treated rats; details: for collagen-induced platelet aggregation, % of control: 4 rats, 1 hour after dosing, collagen 3 μg/ml, control = 100%
Protocol: (4) Ex vivo experiments: Inhibition of rabbit platelet aggregation induced by collagen by the plasma of rats treated with oral rac.-2-amino-N-(2,6-dimethylphenyl)-N-[3-(3-pyridinyl)propyl]propanamide dihydrochloride
The antiplatelet aggregatory activity of rac.-2-amino-N-(2,6-dimethylphenyl)-N-[3-(3-pyridinyl) propyl]propanamide dihydrochloride was observed ex vivo in rats.
control. The control = 100% platelet aggregation.
An aliquot (125 μl) of the platelet free plasma of the rats which had
been orally treated with compound for 1 hour was added to the platelet
rich plasma (125 μl) of the rabbit. Collagen (3 μg/ml) induced
platelet aggregation was measured turbidimetrically.

[8] = read-out: Ouabain Induced Arrhythmias MED, Table III

Row | SMILES | IC50 [1] | minimal effective dose [2, 8] | IC50 [3] | IC50 (Thromboxane Synthase) | other results
1 | Cc1cccc(C)c1NC(=O)C(C)N (centres unmarked) [reference compound] | > 100 µM | 15.5 ± 3.4 mg/kg | > 100 µM |  | 
2 | Cc1cccc(C)c1N(CCCCn1ccnc1)C(=O)C(C)N (centres unmarked) | > 10 µM | > 10 mg/kg | > 10 µM | ~10 µM | 
3 | Cc1cccc(C)c1N(CCCc1cccnc1)C(=O)C(C)N.Cl.Cl (racemic) [rac.-2-amino-N-(2,6-dimethylphenyl)-N-[3-(3-pyridinyl)propyl]propanamide dihydrochloride] | 5 µM | 4.4 ± 1.4 mg/kg | 20 µM | 10 to 100 µM | IC50 [4]: 38 µM; No. of effective cases/No. of experiments ([2]; 1 mg/kg i.v.): 0/4; No. of effective cases/No. of experiments ([2]; 3 mg/kg i.v.): 4/5; No. of effective cases/No. of experiments ([2]; 10 mg/kg i.v.): 1/1; minimal effective dose ([2]; 0.25 h, successive injections of 1, 3 and 10 mg/kg at 15 minute intervals, read-out: MED (minimum effective dose), Table I): 4.4 ± 1.4 mg/kg; IC50 [5]: 1 to 10 µM; onset of the antiarrhythmic effects ([6]; 30 mg/kg p.o.): approximately 1 hour; time of maximum effect after dosing ([6]; 30 mg/kg p.o.): 5 h; percentage of ventricular premature beats at maximum effect ([6]; 30 mg/kg p.o., 5 hours after dosing, from 94±1.5%, p<0.01): 13±7.9%; incidence of ventricular premature contractions and conversion to sinus rhythm ([6]; 30 mg/kg p.o.): dramatically decreased the incidence of ventricular premature contractions (VPCs) and converted ventricular arrhythmias to sinus rhythm; onset of the antiarrhythmic effects ([6]; 100 mg/kg p.o.): ~2 h; time of maximum effect after dosing ([6]; 100 mg/kg p.o.): 2.5 h; percentage of ventricular premature beats at maximum effect ([6]; 100 mg/kg p.o., 2.5 hours after dosing, from 94±0.5%, p<0.05): 10±9.5%; incidence of ventricular premature contractions and conversion to sinus rhythm ([6]; 100 mg/kg p.o.): dramatically decreased the incidence of ventricular premature contractions (VPCs) and converted ventricular arrhythmias to sinus rhythm; duration of the antiarrhythmic effects after dosing ([6]; 30 and 100 mg/kg p.o.): at least 6 hours; collagen-induced platelet aggregation, % of control ([7]; 50 mg/kg p.o.): 77.1 ± 11.7 % of control; collagen-induced platelet aggregation, % of control ([7]; 100 mg/kg p.o., p < 0.01): 64.8 ± 6.2 % of control; collagen-induced platelet aggregation, % of control ([7]; 200 mg/kg p.o., p < 0.01): 40.3 ± 14.0 % of control; ED50 ([7]; Rattus norvegicus, Platelet, po, plasma of rats treated orally for 1 hour, read-out: ED50, inhibition of collagen-induced rabbit platelet aggregation (95% confidence limit)): 123 mg/kg; ED50, inhibition of collagen-induced rabbit platelet aggregation (95% confidence limit) ([7]; plasma of rats treated orally for 1 hour, dihydrochloride, 60 min): 123 (85-274) mg/kg p.o.
4 | Cc1cccc(C)c1N(CCCc1cccnc1)C(=O)Cn1ccnc1 | > 10 µM |  | 1 µM | 0.1 to 1 µM | Ouabain Induced Arrhythmias: number dead/number tested ([2]; dead at 1 mg/kg IV): 1/2
5 | Cc1cccc(C)c1N(CCn1ccnc1)C(=O)CCCc1cccnc1 | 0.5 µM |  | 0.5 µM | 0.1 to 1 µM | Ouabain Induced Arrhythmias: number dead/number tested ([2]; dead at 3 mg/kg IV): 1/2
6 | Cc1cccc(C)c1N(CCCCc1cccnc1)C(=O)C(C)N (centres unmarked) | > 10 µM |  | > 10 µM | 10 to 100 µM | Ouabain Induced Arrhythmias: number converted/number tested ([2]; converted at 3 mg/kg IV): 1/3
7 | Cc1cccc(C)c1N(CCCCCCc1cccnc1)C(=O)C(C)N (centres unmarked) |  | 8.3 ± 1.8 mg/kg |  | 10 to 100 µM | 
8 | CC(N)C(=O)N(CCCc1cccnc1)c1ccccc1 (racemic) [H H H, rac.-2-amino-N-phenyl-N-[3-(3-pyridinyl)propyl]propanamide] |  | > 10 mg/kg |  | 10 to 100 µM | 
9 | Cc1ccc(N(CCCc2cccnc2)C(=O)C(C)N)cc1 (racemic) [H H CH3, rac.-2-amino-N-(4-methylphenyl)-N-[3-(3-pyridinyl)propyl]propanamide] |  | > 10 mg/kg |  | 10 to 100 µM | 
10 | Cc1cccc(C)c1N(CCCc1cccnc1)C(=O)Cn1ccnc1C | > 10 µM | > 10 mg/kg | > 10 µM | 0.1 to 1 µM | 
